# Experimental data taken from US20090087845A1, “Genetic Markers Of True Low Birth Weight” (priority 2005, published 2009).
# “And” between values parts separate entries of the source, which are not always exact repeats. Equal entries are not always repeated.
# System: placental gene expression
# Assay: Placental gene expression (Affymetrix Rat Genome Chip 230.2) after SSRI (fluoxetine) exposure throughout gestation
# Type: in vivo
# Conditions: SSRI exposure during gestation
# Procedure: Gene expression data from pregnant rats under different forms of dietary restriction was gathered. […] (N=8) • Group 2 (CR50): Rats Given 50% of their Normal Daily Intake of Food. (N=5) • Group 3 (CR70): Rats Given 70% of their Normal Daily Intake of Food. […] (N=6) Placentas from the rats of each Group were harvested on Day 21 of gestation. RNA was extracted and gene expression was measured based on hybridization of RNA to Affymetrix Rat Genome Chips™ (230.2) (Affymetrix, Santa Clara, Calif.).
# In order to determine whether placental gene expression profiling can be used to identify other prenatal exposures such as toxicants and drugs, a group of rats with drug exposure was monitored as described above. […] As with control, CR50, CR70, and HF groups, placentas from the mothers were sampled after 21 days of gestation and gene expression monitored utilizing an Affymetrix Rat Genome Chip.
smiles,measurement,value
"CNCCC(Oc1ccc(C(F)(F)F)cc1)c1ccccc1 (stereo not shown) [fluoxetine, Fluoxetine]",Probeset 1367856_at expression,9.227 and 9.529 and 9.365 and 9.385 and 9.39 and 9.762
same,Probeset 1367877_at expression,10.9 and 11 and 11.21 and 11.25 and 10.7225 and 10.35
same,Probeset 1368083_at expression,8.132 and 7.967 and 8.206 and 8.272 and 8.391 and 8.145
same,Probeset 1368824_at expression,8.826 and 8.855 and 9.531 and 9.13 and 8.806 and 9.976
same,Probeset 1369754_a_at expression,8.0392 and 8.245 and 7.92 and 7.959 and 8 and 8.033
same,Probeset 1369775_at expression,8.114 and 8.469 and 8.777 and 8.329 and 7.897 and 9.185
same,Probeset 1370293_at expression,5.003 and 5.146 and 4.947 and 4.866 and 4.888 and 5.155
same,Probeset 1370317_at expression,8.087 and 8.102 and 8.255 and 8.308 and 8.15 and 8.491
same,Probeset 1370521_at expression,8.446 and 8.335 and 8.321 and 8.443 and 8.486 and 8.352
same,Probeset 1370682_at expression,5.234 and 5.326 and 5.095 and 5.171 and 5.242 and 5.482
same,Probeset 1370766_at expression,4.942 and 4.938 and 5.166 and 5.489 and 5.322 and 4.712
same,Probeset 1370918_a_at expression,11.31 and 11.2792 and 11.25 and 11.37 and 11.45 and 11.49
same,Probeset 1370983_at expression,5.843
same,Probeset 1371435_at expression,11.01 and 10.91 and 11.23 and 11.08 and 10.99 and 11.27
same,Probeset 1372141_at expression,9.139 and 9.134 and 9.292 and 9.347 and 9.239 and 9.295
same,Probeset 1373319_at expression,9.055 and 9.237 and 9.183 and 9.332 and 9.182 and 9.352
same,Probeset 1373396_at expression,9.155 and 8.864 and 9.203 and 9.102 and 8.933 and 8.366
same,Probeset 1373572_at expression,7.868 and 7.822 and 7.63 and 7.991 and 8.104 and 8.161
same,Probeset 1373647_at expression,8.371 and 8.23 and 8.672 and 8.447 and 8.268 and 8.235
same,Probeset 1373702_at expression,8.332 and 8.305 and 8.162 and 8.514 and 8.322 and 7.814
same,Probeset 1373804_at expression,6.825 (2×) and 6.702 and 7.208 and 7.238 and 7.527
same,Probeset 1374112_at expression,6.448 and 6.479 and 6.686 and 6.529 and 6.5 and 6.601
same,Probeset 1374739_at expression,8.91 and 8.84 and 9.07 and 9.074 and 8.858 and 8.669
same,Probeset 1375178_at expression,5.861 and 5.694 and 5.836 and 5.574 and 5.873 and 5.942
same,Probeset 1375407_at expression,4.147 and 4.198 and 4.162 and 4.179 and 4.18 and 4.21
same,Probeset 1376294_at expression,8.241 and 8.136 and 8.122 and 8.206 and 8.031 and 7.939
same,Probeset 1376622_at expression,9.179 and 9.106 and 9.158 and 9.007 and 8.828 and 8.85
same,Probeset 1376661_at expression,9.243 and 8.93 and 9.166 and 9.213 and 9.04 and 8.674
same,Probeset 1377210_at expression,5.248 and 4.863 and 5.701 and 5.485 and 5.015 and 5.172
same,Probeset 1377365_at expression,4.943 and 5.014 and 4.818 and 5.177 and 5.084 and 4.987
same,Probeset 1377621_at expression,9.058 and 9.148 and 9.272 and 8.936 and 8.844 and 9.114
same,Probeset 1377746_at expression,6.748 and 6.563 and 6.855 and 6.829 and 6.772 and 6.746
same,Probeset 1378200_at expression,3.497 and 3.656 and 3.453 and 3.611 and 3.537 and 3.653
same,Probeset 1378318_at expression,7.345 and 7.18 and 7.153 and 7.373 and 7.289 and 7.671
same,Probeset 1378906_at expression,4.061 and 4.197 and 4.196 and 4.263 and 4.048 and 4.099
same,Probeset 1378992_at expression,3.715 and 3.63 and 3.611 and 3.744 and 3.567 and 3.655
same,Probeset 1379691_at expression,5.195 and 5.15 and 5.65 and 5.355 and 5.021 and 5.425
same,Probeset 1379822_at expression,4.426 and 4.487 and 4.337 and 4.483 and 4.602 and 4.654
same,Probeset 1379827_at expression,7.363 and 6.823 and 7.052 and 7.077 and 7.08 and 7.626
same,Probeset 1379963_at expression,6.946 and 6.646 and 6.73 and 6.72 and 6.71 and 6.95
same,Probeset 1380175_at expression,5.161 (2×) and 4.962 and 5.291 and 5.16 and 5.03
same,Probeset 1380454_at expression,6.241 and 5.984 and 6.009 and 5.948 and 5.974 and 6.055
same,Probeset 1380887_at expression,4.924
same,Probeset 1381074_at expression,4.46 and 4.412
same,Probeset 1381130_at expression,3.907 and 4.131 and 4.062 and 4.007 and 3.997 and 4.159
same,Probeset 1381286_at expression,5.782 and 5.606 and 5.685 and 5.499 and 5.475 and 5.605
same,Probeset 1381456_at expression,5.51 and 5.294 and 5.392 and 5.362 and 5.479 and 5.538
same,Probeset 1381492_at expression,3.395 and 3.359 and 3.315 and 3.411 and 3.371 and 3.465
same,Probeset 1381950_at expression,3.272 and 3.248 and 3.336 and 3.304 and 3.319 and 3.328
same,Probeset 1382156_at expression,4.657 and 4.812 and 4.826 and 4.712 and 4.874 and 4.952
same,Probeset 1382513_at expression,6.674 and 6.665 and 6.481 and 6.607 and 6.737 and 6.659
same,Probeset 1382670_at expression,8.608 and 8.307 and 8.399 and 8.688 and 8.346 and 8.2197
same,Probeset 1383054_at expression,8.808 and 9.017 and 9.07 and 8.991 and 8.711 and 9.326
same,Probeset 1383300_at expression,8.006 and 8.007 and 8.362 and 8.2749 and 8.022 and 8.359
same,Probeset 1383309_at expression,8.849 and 8.69 and 8.969 and 8.891 and 8.934 and 8.618
same,Probeset 1383329_at expression,5.895 and 5.614 and 5.92 and 5.669 and 5.593 and 5.826
same,Probeset 1383443_at expression,5.684 and 5.567 and 5.755 and 5.468 and 5.752 and 5.677
same,Probeset 1383599_at expression,8.081 and 7.626 and 7.843 and 7.829 and 8.127 and 9.642
same,Probeset 1383670_at expression,6.71 and 6.607 and 6.621 and 6.709 and 6.712 and 7.383
same,Probeset 1384367_at expression,5.722 and 5.628 and 5.604 and 6.025 and 5.735 and 5.669
same,Probeset 1384528_at expression,6.295 and 6.64 and 6.851 and 6.656 and 6.5 and 7.042
same,Probeset 1384573_at expression,8.901 and 8.97 and 9.056 and 9.081 and 8.766 and 9.188
same,Probeset 1384849_at expression,4.389 and 4.321 and 4.282 and 4.323 and 4.508 and 4.489
same,Probeset 1385074_at expression,5.671 and 5.563 and 5.768 and 5.526 and 5.195 and 5.636
same,Probeset 1385113_at expression,7.347 and 7.428 and 7.301 and 7.161 and 7.417 and 7.088
same,Probeset 1385137_at expression,6.487 and 6.691 and 6.525 and 6.507 and 6.657 and 6.515
same,Probeset 1385290_at expression,5.912 and 5.666 and 5.934 and 5.765 and 5.855 and 6.05
same,Probeset 1385386_at expression,3.88 and 3.887 and 3.724 and 3.939 and 3.964 and 3.997
same,Probeset 1385391_at expression,3.906
same,Probeset 1385676_at expression,7.767 and 7.784 and 7.6 and 7.923 and 7.825 and 7.957
same,Probeset 1385790_at expression,8.874 and 8.703 and 8.936 and 8.711 and 8.797 and 8.832
same,Probeset 1385967_at expression,7.8281 and 7.604 and 7.783 and 7.853 and 7.739 and 7.587
same,Probeset 1386125_at expression,6.722 and 6.815 and 6.394 and 6.647 and 6.915 and 6.555
same,Probeset 1387136_at expression,6.858 and 6.879 and 6.716 and 6.836 and 6.917 and 6.91
same,Probeset 1387693_a_at expression,6.346 and 5.564 and 5.898 and 6.298 and 6.19 and 6.092
same,Probeset 1387694_at expression,4.568 (2×) and 4.709 and 4.717 and 4.669 and 4.592
same,Probeset 1387822_at expression,6.542 and 6.446 and 6.117 and 6.626 and 6.634 and 6.309
same,Probeset 1387836_at expression,6.084 and 6.195 and 5.76 and 6.333 and 6.223 and 6.427
same,Probeset 1387914_at expression,7.114 and 7.095 and 6.97 and 7.203 and 7.171 and 6.743
same,Probeset 1388091_at expression,4.883 and 4.896 and 4.86 and 4.66 and 4.763 and 5.101
same,Probeset 1388131_at expression,5.883 and 5.853 (2×) and 5.899 and 5.7 and 5.653
same,Probeset 1388363_at expression,8.334 and 8.137 and 8.387 and 8.484 and 8.155 and 8.23
same,Probeset 1388396_at expression,8.583 and 8.468 and 8.633 and 8.876 and 8.642 and 8.158
same,Probeset 1388669_at expression,7.593 and 7.653 and 7.716 and 7.739 and 7.557 and 7.506
same,Probeset 1389095_at expression,4.796 and 4.404 and 4.732 and 4.907 and 5.027 and 4.473
same,Probeset 1389213_at expression,8.131 and 8.028 and 7.745 and 7.914 and 8.246 and 8.135
same,Probeset 1389599_at expression,7.15 and 6.872 and 6.834 and 7.063 and 7.294 and 6.817
same,Probeset 1389938_at expression,3.471 and 3.408 and 3.488 and 3.5 and 3.516 and 3.49
same,Probeset 1390406_at expression,10.34 and 10.3557 and 10.5 and 10.19 and 10.46 and 10.31
same,Probeset 1390477_at expression,5.455 and 5.297 and 5.408 and 5.153 and 5.575 and 5.333
same,Probeset 1390592_at expression,7.922 and 8.042 and 8.388 and 8.1 and 7.908 and 8.783
same,Probeset 1390603_at expression,7.171 and 7.008 and 7.6 and 6.976 and 7.243 and 7.286
same,Probeset 1390649_at expression,7.938 and 7.688 and 7.673 and 7.791 and 7.858 and 7.491
same,Probeset 1390892_at expression,5.596 and 5.604 and 5.507 and 5.408 and 5.571 and 5.5082
same,Probeset 1391078_at expression,8.106 and 8.271 and 8.74 and 8.604 and 8.221 and 9.079
same,Probeset 1391283_at expression,5.834 and 5.874 and 5.96 and 5.702 and 5.598 and 5.898
same,Probeset 1391376_at expression,7.65 and 7.982 and 7.683 and 7.518 and 7.491 and 7.602
